Consider six compounds from US9586959B2, “Substituted tricyclic heterocycles as histamine 4 receptor inhibitors” (C&C RESEARCH LABORATORIES, priority 2011, dated 2017).

For data set [1], the target named is human histamine 3 receptor (hH3R) (Homo sapiens (Human), UniProt Q9Y5N1). Put plainly: Binding affinity of human histamine 3 receptor (hH3R), [3H] labeled N-α-methylhistamine displacement. The conditions noted are these: hH3R-overexpressed cell membrane, [3H] N-α-methylhistamine. The essentials:
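Membranes from cells overexpressing hH3R (15 μg) were incubated with compound and [3H]N-α-methylhistamine (20 μM stock) in 50 mM Tris-HCl pH 7.4, 5 mM MgCl2 for 30 min at 27 °C. Bound radioligand was counted by scintillation after filtration; 200 μM (R)(−)-α-methylhistamine stock defined non-specific binding; IC50 derived.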

In data set [2] the target is human histamine 4 receptor (hH4R) (Homo sapiens (Human), UniProt Q9H3N8). As to the kind of experiment: Binding affinity of human histamine 4 receptor (hH4R), [3H] labeled histamine displacement. The settings on record: hH4R-overexpressed cell membrane, [3H] histamine. The procedure, abridged: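 Membranes of hH4R-overexpressing cells (25 μg) incubated with compound and [3H]histamine (diluted to 1 μM before addition) for 30 min at 27° C. Non-specific binding defined with histamine (100 μM before addition); bound radioligand collected by filtration on PEI-presoaked glass fibre, washed with 50 mM Tris-HCl pH 7.4, counted by scintillation (CPM).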

The nature of data set [3]: Solubility in artificial gastrointestinal tract solution. It is filed as physicochemical. The conditions noted are these: artificial gastrointestinal tract solution, thermodynamic from solid; for solubility at 1 h: fassgf or other biorelevant, first solution pH 1.2, 2 mg/mL sample, 37° C. 1 hour; for solubility at 2 h: fassif, second solution pH 6.5, 2 mg/mL sample, 37° C. 2 hours. The procedure, abridged:
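Two media were used: pH 1.2 NaCl/HCl with Triton X-100, and pH 6.5 phosphate buffer with sodium taurocholate and lecithin. Heated sample solutions were filtered to remove undissolved compound, diluted 1:1 with CH3CN, and solubility was measured by liquid chromatography.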

In data set [4] the test system is substance P-induced itching, ICR mice. Put plainly: Substance P-induced itching model in ICR mice. The class given is in vivo. The conditions noted are these: 50 mg/kg oral, substance P 100 nmol intradermal, 20 min count. As to the method:
Female, ICR mice (8 weeks old) were purchased from OrientBio Co., Ltd. The animals were housed under conditions of controlled temperature (23±3° C.), humidity (50±5%) and lighting with food and water available ad libitum.
The hair was clipped using clippers (8000AD, THRIVE) over the rostral part of the back 24 hours before the experiment under anesthesia with isoflurane. Substance P (100 nmol) was dissolved in saline and a volume of 40 μL injected intradermally into the rostral part of the back. Mice were dosed with either vehicle (20% cyclodextrin in second distilled water) or the compound by orally administration. The Compound (50 mg/kg) dissolved in a vehicle (20% cyclodextrin in second distilled water) and administered orally at a volume of 10 mL/kg.
Mice (n=10 per group) were divided into 3 groups (normal group, control group and experimental group). The animals were randomized for similar body weight distribution. A Vehicle or the compound was administered 20 minutes before injection of substance P or saline. Immediately after intradermal injection, the animals were returned to an acrylic cage (approximately 30×30×30 cm, access production) composed of four cells, to which they had been acclimated for at least 1 hour before the experiment, for observation of itch responses. A camera (Samsung, VLUUNV30) was positioned above the mice to record their response. Itch was measured by blinded counting of the number of scratching in the 20 min period immediately after the intradermal injection. A number of scratching was defined as 3 or more individual rapid scratch movements with the hind paws around the injection site (J. Toxicol. Sci. 2009, 34(4), 427-431; J. Pharmacol. Sci. 2006, 100, 285-288). All data were analyzed by using Excel and Prism, and all values are expressed as the mean±S.E.M. The inhibitory effect of compounds is shown as a percentage of the maximal response to histamine (100% control group). Statistical analysis was analyzed using one-way ANOVA with Dunnett test. Values of p<0.05 were considered statistically significant.

A short description of data set [5]: Metabolic stability in mouse microsome. The settings on record: mouse microsome 1 mg/mL, 5 μM compound, 1 mM NADPH.
Data set [6] is described as follows: Metabolic stability in human microsome. The conditions noted are these: for Metabolic stability (CLh. int), Human: human microsome 1 mg/mL, 5 μM compound, 1 mM NADPH.

Converted amounts (≈) assume the structure as drawn.

As usually defined, the IC50 is the concentration needed to halve the response being measured. High values mean a need for much substance, low ones inhibition by little substance. As a reminder, the solubility is how much of the substance goes into solution per volume. Low readings indicate a poorly soluble substance, high ones a readily soluble substance.

human histamine 4 receptor (hH4R), sequence (Q9H3N8 whole entry): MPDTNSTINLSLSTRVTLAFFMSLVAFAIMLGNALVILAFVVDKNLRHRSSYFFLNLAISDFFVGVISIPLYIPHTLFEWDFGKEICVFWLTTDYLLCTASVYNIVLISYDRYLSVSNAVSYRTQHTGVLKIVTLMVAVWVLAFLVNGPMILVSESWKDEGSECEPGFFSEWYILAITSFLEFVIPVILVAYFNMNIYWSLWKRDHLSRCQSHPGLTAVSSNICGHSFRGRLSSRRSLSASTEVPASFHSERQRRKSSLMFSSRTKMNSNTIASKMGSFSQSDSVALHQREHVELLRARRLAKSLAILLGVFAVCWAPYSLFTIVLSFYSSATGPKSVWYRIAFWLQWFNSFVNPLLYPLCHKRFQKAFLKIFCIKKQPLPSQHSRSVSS
human histamine 3 receptor (hH3R), sequence (Q9Y5N1 whole entry): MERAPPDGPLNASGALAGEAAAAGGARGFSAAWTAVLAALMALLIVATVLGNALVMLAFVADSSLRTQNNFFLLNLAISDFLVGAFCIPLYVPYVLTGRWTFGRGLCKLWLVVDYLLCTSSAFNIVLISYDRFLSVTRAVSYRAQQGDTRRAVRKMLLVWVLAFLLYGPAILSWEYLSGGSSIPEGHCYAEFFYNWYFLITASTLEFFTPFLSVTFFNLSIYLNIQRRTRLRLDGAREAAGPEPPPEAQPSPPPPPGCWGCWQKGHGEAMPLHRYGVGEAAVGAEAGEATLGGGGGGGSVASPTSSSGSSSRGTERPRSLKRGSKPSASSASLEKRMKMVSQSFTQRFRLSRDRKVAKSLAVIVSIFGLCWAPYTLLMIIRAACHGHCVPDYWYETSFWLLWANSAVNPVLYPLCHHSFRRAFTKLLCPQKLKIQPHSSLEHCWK

`CN1CCN(c2nc3ncc(Cl)cc3n3cnnc23)CC1` [Compound 4, 8-Chloro-4-(4-methylpiperazin-1-yl)pyrido[2,3-e][1,2,4]triazolo[4,3-a]pyrazine]: the IC50 in data set [1] was determined as 90000 nM. Further, the IC50 in data set [2] was found to be 40 nM. In data set [3], this compound returned a solubility at 1 h of 2010 µg/mL (≈ 6.61 mM) and a solubility at 2 h of 1240 µg/mL (≈ 4.09 mM). For the same compound, the “Number of scratching (% change from control group)” value in data set [4] was 50.8%. Moreover, the “Metabolic stability (CLh. int), Mouse” value in data set [5] worked out at 10220 µL/min/mg. In addition, in data set [6], the “Metabolic stability (CLh. int), Human” value was found to be 2200 µL/min/mg.

Take `Clc1cnc2nc(N3CCNCC3)c3nncn3c2c1` [Compound 7, 8-Chloro-4-(piperazin-1-yl)pyrido[2,3-e][1,2,4]triazolo[4,3-a]pyrazine]: in data set [1], the IC50 was over 100000 nM. Further, the IC50 in data set [2] came out at 133 nM. Also, in data set [3], the solubility at 1 h was determined as 1370 µg/mL (≈ 4.74 mM) and the solubility at 2 h is 1150 µg/mL (≈ 3.97 mM). Moreover, in data set [4], the “Number of scratching (% change from control group)” value is given as 60.5^1%. Moreover, the “Metabolic stability (CLh. int), Mouse” value in data set [5] was 6900 µL/min/mg. In addition, in data set [6] (human microsome, 30 minutes), the “% remaining in 30 minutes” value is listed as “NC^y: Not calculable (99.8% remaining in 30 minutes)”.

Regarding `CNC1CN(c2nc3ncc(Cl)cc3n3cnnc23)C1` [Compound 18, 1-(8-Chloropyrido[2,3-e][1,2,4]triazolo[4,3-a]pyrazin-4-yl)-N-methylazetidin-3-amine], the 50% inhibitory concentration (IC50) in data set [1] was over 100000 nM; in data set [2], 55 nM. In data set [3], the solubility at 1 h was 1590 µg/mL (≈ 5.5 mM). Besides, the solubility at 2 h in data set [3] worked out at 791 µg/mL (≈ 2.73 mM). The “Number of scratching (% change from control group)” value in data set [4] was found to be 42.6%. In addition, the “Metabolic stability (CLh. int), Mouse” value in data set [5] turned out to be 1760 µL/min/mg. In addition, the “Metabolic stability (CLh. int), Human” value in data set [6] was 4200 µL/min/mg.

As to `CNC1CN(c2nc3ncc(Br)cc3n3cnnc23)C1` [Compound 24, 1-(8-Bromopyrido[2,3-e][1,2,4]triazolo[4,3-a]pyrazin-4-yl)-N-methylazetidin-3-amine], the values for the IC50 in data set [1] and in data set [2] were over 100000 nM and 36 nM, respectively. For the same compound, in data set [3], the concentration in solution (solubility at 1 h) came to 1690 µg/mL (≈ 5.06 mM). The compound further returned a solubility at 2 h in data set [3] of 939 µg/mL (≈ 2.81 mM). Further, in data set [4], the “Number of scratching (% change from control group)” value is on record as 74.5^1%. Moreover, the “Metabolic stability (CLh. int), Mouse” value in data set [5] came out at 3050 µL/min/mg. The “Metabolic stability (CLh. int), Human” value in data set [6] came out at 1330 µL/min/mg.

Regarding `CNC1CN(c2nc3ncc(I)cc3n3cnnc23)C1` [Compound 48, 1-(8-Iodopyrido[2,3-e][1,2,4]triazolo[4,3-a]pyrazin-4-yl)-N-methylazetidin-3-amine], the IC50 in data set [1] is over 100000 nM. Moreover, the IC50 in data set [2] amounted to 65 nM. In data set [3], this compound displayed a solubility at 1 h of 1610 µg/mL (≈ 4.22 mM) and a solubility at 2 h of 677 µg/mL (≈ 1.78 mM). Further, the “Number of scratching (% change from control group)” value in data set [4] was 33.5%. Also, the “Metabolic stability (CLh. int), Mouse” value in data set [5] is 5310 µL/min/mg. The “Metabolic stability (CLh. int), Human” value in data set [6] came to 400 µL/min/mg.

In data set [1], `CNC1CN(c2nc3ncc(Br)cc3n3nnnc23)C1` [Compound 95, 1-(8-Bromopyrido[2,3-e]tetrazolo[1,5-a]pyrazin-4-yl)-N-methylazetidin-3-amine] displayed a 50% inhibitory concentration (IC50) of over 100000 nM. In data set [2], this compound yielded an IC50 of 44 nM. In data set [3], this compound returned a solubility at 1 h of 1790 µg/mL (≈ 5.34 mM) and a solubility at 2 h of 1130 µg/mL (≈ 3.36 mM). In addition, the “Number of scratching (% change from control group)” value in data set [4] is given as 80.7^1%. In data set [5], the “Metabolic stability (CLh. int), Mouse” value turned out to be 18100 µL/min/mg. In data set [6], the “Metabolic stability (CLh. int), Human” value was 5500 µL/min/mg.
